Results: PubChem BioAssay (NCI)
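Cells were grown in 96-well plates and exposed to each compound for 48 hours at five concentrations; endpoints were interpolated linearly between bracketing concentrations, or set to the highest concentration if not reached. The concentration for full growth arrest is given as TGI.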

What was measured:
Experiment in all cases: DTP human tumour cell line panel, 48 h
786-0 renal = test system: 786-0 renal
A498 renal = test system: A498 renal
A549 NSCLC = test system: A549 NSCLC
ACHN renal = test system: ACHN renal
BT-549 breast = test system: BT-549 breast
CAKI-1 renal = test system: CAKI-1 renal
CCRF-CEM leukemia = test system: CCRF-CEM leukemia
COLO 205 colon = test system: COLO 205 colon
DMS 114 small cell lung = test system: DMS 114 small cell lung
DMS 273 small cell lung = test system: DMS 273 small cell lung
DU-145 prostate = test system: DU-145 prostate
EKVX NSCLC = test system: EKVX NSCLC
HCC-2998 colon = test system: HCC-2998 colon
HCT-116 colon = test system: HCT-116 colon
HCT-15 colon = test system: HCT-15 colon
HL-60(TB) leukemia = test system: HL-60(TB) leukemia
HOP-62 NSCLC = test system: HOP-62 NSCLC
HOP-92 NSCLC = test system: HOP-92 NSCLC
HS 578T breast = test system: HS 578T breast
HT29 colon = test system: HT29 colon
IGROV1 ovarian = test system: IGROV1 ovarian
K-562 leukemia = test system: K-562 leukemia
KM12 colon = test system: KM12 colon
KM20L2 colon = test system: KM20L2 colon
LOX IMVI melanoma = test system: LOX IMVI melanoma
LXFL 529 NSCLC = test system: LXFL 529 NSCLC
M14 melanoma = test system: M14 melanoma
M19-MEL melanoma = test system: M19-MEL melanoma
MALME-3M melanoma = test system: MALME-3M melanoma
MCF7 breast = test system: MCF7 breast
MDA-MB-231 breast = test system: MDA-MB-231 breast
MDA-MB-435 = test system: MDA-MB-435
MDA-N = test system: MDA-N
MOLT-4 leukemia = test system: MOLT-4 leukemia
NCI-H226 lung = test system: NCI-H226 lung
NCI-H23 lung = test system: NCI-H23 lung
NCI-H460 lung = test system: NCI-H460 lung
NCI-H522 lung = test system: NCI-H522 lung
NCI/ADR-RES ovarian = test system: NCI/ADR-RES ovarian
OVCAR-3 ovarian = test system: OVCAR-3 ovarian
OVCAR-4 ovarian = test system: OVCAR-4 ovarian
OVCAR-5 ovarian = test system: OVCAR-5 ovarian
OVCAR-8 ovarian = test system: OVCAR-8 ovarian
PC-3 prostate = test system: PC-3 prostate
RPMI-8226 leukemia = test system: RPMI-8226 leukemia
RXF 393 renal = test system: RXF 393 renal
SF-268 CNS = test system: SF-268 CNS
SF-295 CNS = test system: SF-295 CNS
SF-539 CNS = test system: SF-539 CNS
SK-MEL-2 melanoma = test system: SK-MEL-2 melanoma
SK-MEL-28 melanoma = test system: SK-MEL-28 melanoma
SK-MEL-5 melanoma = test system: SK-MEL-5 melanoma
SK-OV-3 ovarian = test system: SK-OV-3 ovarian
SN12C renal = test system: SN12C renal
SNB-19 CNS = test system: SNB-19 CNS
SNB-75 CNS = test system: SNB-75 CNS
SNB-78 CNS = test system: SNB-78 CNS
SR leukemia = test system: SR leukemia
SW-620 colon = test system: SW-620 colon
T-47D breast = test system: T-47D breast
TK-10 renal = test system: TK-10 renal
U251 CNS = test system: U251 CNS
UACC-257 melanoma = test system: UACC-257 melanoma
UACC-62 melanoma = test system: UACC-62 melanoma
UO-31 renal = test system: UO-31 renal
XF 498 CNS = test system: XF 498 CNS

Question: Which results are given for Cc1cc(CS(=O)(=O)/C=C/c2ccccc2[N+](=O)[O-])c(CS(=O)(=O)/C=C/c2ccccc2[N+](=O)[O-])cc1C?
Answer: TGI (786-0 renal): 34.9 µM; TGI (A498 renal): 70.9 µM; TGI (A549 NSCLC): > 100 µM; TGI (ACHN renal): > 100 µM; TGI (BT-549 breast): 44.4 µM; TGI (CAKI-1 renal): > 100 µM; TGI (CCRF-CEM leukemia): > 46.4 µM; TGI (COLO 205 colon): > 100 µM; TGI (DMS 114 small cell lung): > 100 µM; TGI (DMS 273 small cell lung): > 100 µM; TGI (DU-145 prostate): > 100 µM; TGI (EKVX NSCLC): > 100 µM; TGI (HCC-2998 colon): > 100 µM; TGI (HCT-116 colon): > 100 µM; TGI (HCT-15 colon): > 100 µM; TGI (HL-60(TB) leukemia): > 100 µM; TGI (HOP-62 NSCLC): 49.4 µM; TGI (HOP-92 NSCLC): 74.1 µM; TGI (HS 578T breast): > 62.5 µM; TGI (HT29 colon): > 100 µM; TGI (IGROV1 ovarian): > 100 µM; TGI (K-562 leukemia): > 100 µM; TGI (KM12 colon): > 100 µM; TGI (KM20L2 colon): > 100 µM; TGI (LOX IMVI melanoma): > 100 µM; TGI (LXFL 529 NSCLC): > 100 µM; TGI (M14 melanoma): > 100 µM; TGI (M19-MEL melanoma): > 100 µM; TGI (MALME-3M melanoma): > 100 µM; TGI (MCF7 breast): > 100 µM; TGI (MDA-MB-231 breast): > 51.2 µM; TGI (MDA-MB-435): > 100 µM; TGI (MDA-N): 99.7 µM; TGI (MOLT-4 leukemia): > 100 µM; TGI (NCI-H226 lung): 59.4 µM; TGI (NCI-H23 lung): > 51.7 µM; TGI (NCI-H460 lung): > 100 µM; TGI (NCI-H522 lung): > 100 µM; TGI (NCI/ADR-RES ovarian): > 100 µM; TGI (OVCAR-3 ovarian): > 100 µM; TGI (OVCAR-4 ovarian): 32.3 µM; TGI (OVCAR-5 ovarian): > 100 µM; TGI (OVCAR-8 ovarian): > 100 µM; TGI (PC-3 prostate): > 100 µM; TGI (RPMI-8226 leukemia): > 86 µM; TGI (RXF 393 renal): 41.2 µM; TGI (SF-268 CNS): > 100 µM; TGI (SF-295 CNS): 63.2 µM; TGI (SF-539 CNS): 35.9 µM; TGI (SK-MEL-2 melanoma): 36.5 µM; TGI (SK-MEL-28 melanoma): > 100 µM; TGI (SK-MEL-5 melanoma): > 100 µM; TGI (SK-OV-3 ovarian): 37.5 µM; TGI (SN12C renal): > 100 µM; TGI (SNB-19 CNS): > 83.1 µM; TGI (SNB-75 CNS): 32 µM; TGI (SNB-78 CNS): 66.2 µM; TGI (SR leukemia): > 100 µM; TGI (SW-620 colon): > 100 µM; TGI (T-47D breast): > 100 µM; TGI (TK-10 renal): > 81.8 µM; TGI (U251 CNS): 71.3 µM; TGI (UACC-257 melanoma): > 100 µM; TGI (UACC-62 melanoma): > 100 µM; TGI (UO-31 renal): > 100 µM; TGI (XF 498 CNS): 38.3 µM
